{"source": "patent US20240066155A1", "about": "“DUAL MODE RADIOTRACER AND -THERAPEUTICS” (priority 2021, published 2024)", "key": {"PSMA": {"target": "T1, PSMA (Homo sapiens, UniProt Q04609)", "T1 construct": "endogenous in cells; host or cells: LNCaP cells", "T1 sequence (Q04609 whole entry)": "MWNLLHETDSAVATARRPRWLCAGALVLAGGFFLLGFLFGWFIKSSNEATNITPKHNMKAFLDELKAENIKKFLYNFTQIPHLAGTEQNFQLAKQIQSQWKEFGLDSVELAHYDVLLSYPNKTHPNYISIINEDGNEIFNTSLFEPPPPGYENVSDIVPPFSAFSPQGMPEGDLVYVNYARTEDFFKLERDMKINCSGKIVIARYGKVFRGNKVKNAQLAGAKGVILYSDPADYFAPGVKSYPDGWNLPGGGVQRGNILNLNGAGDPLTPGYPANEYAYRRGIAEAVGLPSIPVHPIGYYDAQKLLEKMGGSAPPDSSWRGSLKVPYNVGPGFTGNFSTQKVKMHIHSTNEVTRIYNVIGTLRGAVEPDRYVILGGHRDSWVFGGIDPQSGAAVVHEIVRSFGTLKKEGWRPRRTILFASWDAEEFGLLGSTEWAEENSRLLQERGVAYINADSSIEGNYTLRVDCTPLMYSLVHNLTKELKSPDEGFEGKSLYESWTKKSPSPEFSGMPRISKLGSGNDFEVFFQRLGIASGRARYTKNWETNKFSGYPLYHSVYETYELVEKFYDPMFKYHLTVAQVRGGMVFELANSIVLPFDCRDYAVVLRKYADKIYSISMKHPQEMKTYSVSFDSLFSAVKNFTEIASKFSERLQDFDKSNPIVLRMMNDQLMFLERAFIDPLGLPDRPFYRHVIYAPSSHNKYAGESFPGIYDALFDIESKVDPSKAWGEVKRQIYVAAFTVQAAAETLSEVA", "experiment": "Competitive binding studies on LNCaP cells vs ([125I]BA)KuE (affinity, IC50)", "conditions": "1 h, 4° C., natLu complexes", "experimental": "(§1) Competitive binding studies were determined on LNCaP cells (1.5×10^5 cells in 1 mL/well) after incubation at 4° C. for 1 h, using (((S)-1-carboxy-5-(4-([^125I]iodo)benzamido)pentyl)carbamoyl)-L-glutamic acid ([^125I]BA)KuE; 0.2 nM/well) as reference radioligand (n=3). Internalization studies of the radiolabeled ligands (1.0 nM/well) were performed on LNCaP cells (1.25×10^5 cells in 1 mL/well) at 37° C. for 1 h and accompanied by ([^125I]BA)KuE (0.2 nM/well), as reference. Data were corrected for non-specific binding and normalized to the specific internalization observed for the reference (n=3). A detailed description of the experimental procedures was previously published (Wurzer A, et al. J Nucl Med. 2020; 61: 735-742)."}, "LNCaP cells": {"tested_on": "LNCaP cells", "experiment": "PSMA-mediated internalization into LNCaP cells", "assay_type": "cell-based", "conditions": "1 h, 37° C., percentage of reference ligand ([125I]BA)KuE, n=3", "experimental": "as §1"}, "[1]": {"experiment": "Lipophilicity, n-octanol/PBS (pH 7.4) distribution", "assay_type": "physicochemical", "conditions": "n-octanol/PBS pH 7.4, 177Lu-labeled, n=6", "experimental": "Approximately 1 MBq of the ^177Lu-labeled PSMA ligand was dissolved in 1 mL of a 1:1 mixture (v/v) of phosphate-buffered saline (PBS, pH 7.4) and n-octanol (n=6). After vigorous mixing of the suspension for 3 min, the vial was centrifuged at 15000×g for 3 min and 100 μL aliquots of both layers were measured in a γ-counter. Finally, the ratio of the radioactivity detected in the n-octanol sample and the PBS buffer was calculated and expressed as distribution ratio log D7.4."}, "human serum albumin": {"target": "T2, human serum albumin (Homo sapiens, UniProt P02768)", "T2 construct": "purchased Biowest, Nuaillé, France", "T2 sequence (P02768 25-609)": "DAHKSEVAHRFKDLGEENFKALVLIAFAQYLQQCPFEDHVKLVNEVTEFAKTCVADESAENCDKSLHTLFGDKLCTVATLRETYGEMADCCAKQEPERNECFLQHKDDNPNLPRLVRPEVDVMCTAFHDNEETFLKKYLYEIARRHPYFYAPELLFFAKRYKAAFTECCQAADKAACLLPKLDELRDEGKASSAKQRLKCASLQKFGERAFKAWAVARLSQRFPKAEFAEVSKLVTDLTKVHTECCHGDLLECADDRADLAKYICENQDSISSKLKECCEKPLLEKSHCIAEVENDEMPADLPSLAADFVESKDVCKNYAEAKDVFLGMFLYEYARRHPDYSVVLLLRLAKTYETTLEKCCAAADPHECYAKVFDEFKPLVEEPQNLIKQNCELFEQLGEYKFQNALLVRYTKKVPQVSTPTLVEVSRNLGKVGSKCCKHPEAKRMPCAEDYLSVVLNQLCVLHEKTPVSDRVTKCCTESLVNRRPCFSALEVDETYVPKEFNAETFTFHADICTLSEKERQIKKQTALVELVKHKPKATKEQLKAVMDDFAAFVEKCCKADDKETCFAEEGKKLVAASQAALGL", "experiment": "Binding to human serum albumin by albumin mediated size exclusion chromatography (AMSEC)", "assay_type": "in vitro ADME", "conditions": "size exclusion chromatography with HSA in the mobile phase, 177Lu-labeled", "experimental": "Binding of ^177Lu-labeled ligands to HSA was assessed by albumin mediated size exclusion chromatography (AMSEC). A gel filtration size exclusion column (Superdex 75 Increase 10/300 GL, GE Healthcare, Uppsala, Sweden) was used with HSA buffer at physiological concentration (700 μM, Biowest, Nuaillé, France) as mobile phase (constant flow rate of 0.8 mL/min at room temperature). For calibration purposes, a commercially available set of proteins (GE Healthcare, Buckinghamshire, UK) was used. Under these chromatographic conditions, the retention time of a radioligand (1.0 MBq, 10-20 GBq/μmol) depends on the extent of HSA/ligand interactions and thus, by means of the calibration with the aforementioned set of proteins, can be translated into an AMW (expressed in kDa) as a parameter allowing to quantify the extent of HSA binding. The detection window ranges between 2.3 kDa ([^18F]Fluoride; no HSA interaction) and 70.2 kDa (experimental molecular weight of HSA; maximum HSA interaction)."}, "[2]": {"tested_on": "LNCaP tumor-bearing male CB-17 SCID mice", "experiment": "Ex vivo biodistribution in LNCaP tumor-bearing CB-17 SCID mice", "conditions": "24 h p.i.", "experimental": "All animal experiments were conducted in accordance with general animal welfare regulations in Germany (German animal protection act, as amended on 18 May 2018, Art. 141 G v. 29 Mar. 2017 I 626, approval no. 55.2-1-54-2532-71-13) and the institutional guidelines for the care and use of animals. LNCaP tumor xenografts were established in 6-8 weeks old male CB-17 SCID mice as described previously (Wurzer A, et al. J Nucl Med. 2020; 61: 735-742). Biodistribution Studies. The ^177Ludabeled PSMA inhibitors (2-5 MBq; 0.1 nmol) were injected under isoflurane anesthesia into the tail vein of LNCaP tumor-bearing male CB-17 SCID mice that were sacrificed 24 h post injection (p.i.) (n=4-5). Selected organs were removed, weighed, and measured in a counter. All rhPSMA ligands were evaluated in mice during the same time period (Q1/2020), whereas ^177Ludabeled PSMA-617 and PSMA I&T (Wirtz M, et al. EJNMMI Res. 2018; 8: 84) were assessed previously using the identical cell line, mouse model and experimental procedure."}, "[3]": {"conditions": "literature, Wängler et al. Bioconjug Chem 2010; cited from earlier work"}, "[4]": {"conditions": "n=5, mean of ratios per mouse, listed as [^177Lu] PSMA-I&T"}}, "note": "Values joined by “and” are separate entries in the source; they are usually repeats but may differ in a detail not shown here. Equal entries are not always repeated.", "data": [{"compound": "O=C([O-])CN1CCN(CC(=O)[O-])CCN(C(CCC(=O)N[C@H](Cc2ccc(O)c(I)c2)C(=O)N[C@H](Cc2ccccc2)C(=O)N[C@H](CCCCNC(=O)CCCCCCC(=O)NCCCC[C@H](NC(=O)N[C@@H](CCC(=O)O)C(=O)O)C(=O)O)C(=O)O)C(=O)O)CCN(CC(=O)[O-])CC1.[Lu+3]", "note": "(stereo partly shown) [[^177Lu]PSMA I&T]", "values": [{"measurement": "IC50", "setting": "PSMA; n=3", "value": "4.17 ± 0.78", "unit": "nM"}, {"measurement": "IC50", "setting": "PSMA; n=3, listed as [^natLu]PSMA I&T", "value": "4.2 ± 0.8", "unit": "nM"}, {"measurement": "Internalization [% IBA-KuE]", "setting": "LNCaP cells", "value": "145±14 % IBA-KuE and 145.4 ± 13.8 % IBA-KuE"}, {"measurement": "logD7.4", "setting": "[1]", "value": "−4.1 ± 0.1"}, {"measurement": "MWapp [kDa] (apparent molecular weight, AMW; HSA binding)", "setting": "human serum albumin", "value": 5.3, "unit": "kDa"}, {"measurement": "Tumor uptake", "setting": "[2]; LNCaP tumor", "value": "4.1±1.1", "unit": "% ID/g"}, {"measurement": "Tumor-to-organ ratio adrenals", "setting": "[2]; n=5, mean of ratios per mouse", "value": 5.62}, {"measurement": "Tumor-to-organ ratio blood", "setting": "[2]; n=5, mean of ratios per mouse", "value": 1288}, {"measurement": "Tumor-to-organ ratio bone", "setting": "[2]; n=5, mean of ratios per mouse", "value": 358.26}, {"measurement": "Tumor-to-organ ratio heart", "setting": "[2]; n=5, mean of ratios per mouse", "value": 366.06}, {"measurement": "Tumor-to-organ ratio intestine", "setting": "[2]; n=5, mean of ratios per mouse", "value": 191.31}, {"measurement": "Tumor-to-organ ratio kidney", "setting": "[2]; n=5, mean of ratios per mouse", "value": 0.6}, {"measurement": "Tumor-to-organ ratio liver", "setting": "[2]; n=5, mean of ratios per mouse", "value": 155.09}, {"measurement": "Tumor-to-organ ratio lung", "setting": "[2]; n=5, mean of ratios per mouse", "value": 65.08}, {"measurement": "Tumor-to-organ ratio muscle", "setting": "[2]; n=5, mean of ratios per mouse", "value": 1964.92}, {"measurement": "Tumor-to-organ ratio pancreas", "setting": "[2]; n=5, mean of ratios per mouse", "value": 336.33}, {"measurement": "Tumor-to-organ ratio parotid gl.", "setting": "[2]; n=5, mean of ratios per mouse", "value": 63.21}, {"measurement": "Tumor-to-organ ratio spleen", "setting": "[2]; n=5, mean of ratios per mouse", "value": 9.06}, {"measurement": "Tumor-to-organ ratio stomach", "setting": "[2]; n=5, mean of ratios per mouse", "value": 236.69}, {"measurement": "Tumor-to-organ ratio submand. gl.", "setting": "[2]; n=5, mean of ratios per mouse", "value": 136.76}, {"measurement": "Tumor-to-organ ratio blood", "setting": "[2]; [4]", "value": 1288.54}, {"measurement": "Tumor-to-organ ratio kidney", "setting": "[2]; [4]", "value": 0.61}, {"measurement": "Activity accumulation adrenals", "setting": "[2]; n=5, mean, complete dataset", "value": 1.3590, "unit": "% ID/g"}, {"measurement": "Activity accumulation blood", "setting": "[2]; n=5, mean, complete dataset", "value": 0.0061, "unit": "% ID/g"}, {"measurement": "Activity accumulation bone", "setting": "[2]; n=5, mean, complete dataset", "value": 0.0209, "unit": "% ID/g"}, {"measurement": "Activity accumulation heart", "setting": "[2]; n=5, mean, complete dataset", "value": 0.0208, "unit": "% ID/g"}, {"measurement": "Activity accumulation intestine", "setting": "[2]; n=5, mean, complete dataset", "value": 0.0507, "unit": "% ID/g"}, {"measurement": "Activity accumulation kidney", "setting": "[2]; n=5, mean, complete dataset", "value": "15.9±12.0", "unit": "% ID/g"}, {"measurement": "Activity accumulation liver", "setting": "[2]; n=5, mean, complete dataset", "value": 0.0553, "unit": "% ID/g"}, {"measurement": "Activity accumulation lung", "setting": "[2]; n=5, mean, complete dataset", "value": 0.1138, "unit": "% ID/g"}, {"measurement": "Activity accumulation muscle", "setting": "[2]; n=5, mean, complete dataset", "value": 0.0051, "unit": "% ID/g"}, {"measurement": "Activity accumulation pancreas", "setting": "[2]; n=5, mean, complete dataset", "value": 0.0295, "unit": "% ID/g"}, {"measurement": "Activity accumulation parotid gl.", "setting": "[2]; n=5, mean, complete dataset", "value": 0.1346, "unit": "% ID/g"}, {"measurement": "Activity accumulation spleen", "setting": "[2]; n=5, mean, complete dataset", "value": 1.2047, "unit": "% ID/g"}, {"measurement": "Activity accumulation stomach", "setting": "[2]; n=5, mean, complete dataset", "value": 0.0326, "unit": "% ID/g"}, {"measurement": "Activity accumulation submand. gl.", "setting": "[2]; n=5, mean, complete dataset", "value": 0.0581, "unit": "% ID/g"}, {"measurement": "Activity accumulation tumor", "setting": "[2]; n=5, mean, complete dataset, LNCaP tumor", "value": 7.5780, "unit": "% ID/g"}, {"measurement": "Activity accumulation kidney", "setting": "[2]; n=5, mean, complete dataset, listed as [^177Lu]PSMA-I&T", "value": 15.8527, "unit": "% ID/g"}]}, {"compound": "SIFA-Asn(AcNH-β-Glc)-Tyr^3-octreotate", "values": [{"measurement": "log P(ow)", "setting": "[3]", "value": 1.23}]}, {"compound": "SIFA-Asn(AcNH-β-Glc)-PEG-Tyr^3-octreotate", "values": [{"measurement": "log P(ow)", "setting": "[3]", "value": 0.96}]}]}
